Laboratory results published in patent US20060252807A1, “Novel ortho-terphenyl inhibitors of p38 kinase and methods of treating inflammatory disorders” (Kalypsys, Inc., priority 2005, published 2006).

What follows are compounds tested against T1, active p38 alpha enzyme (Upstate Biotechnology) (Homo sapiens, UniProt Q16539) (assay: p38α biochemical assay (ATP turnover, luminescent detection, Cambrex PKlight)). Conditions: p38α kinase; Table 1 Biological Activity.
T1 construct: purchased Upstate Biotechnology
Method in brief: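 Active human p38α was incubated with full-length MapkapK2 protein as substrate and 1.4 uM ATP (final) for 2 hours at 30C. Buffer: 200 mM Tris, 100 mM MgCl2, 1.5 mM EGTA, 4 mM CaCl2, 20 mM MOPS, 1 mM EDTA, 1% glycerol, 0.1% β-mercaptoethanol, 1 mg/ml BSA. Total ATP turnover read by luminescence.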

T1 sequence (Q16539 whole entry): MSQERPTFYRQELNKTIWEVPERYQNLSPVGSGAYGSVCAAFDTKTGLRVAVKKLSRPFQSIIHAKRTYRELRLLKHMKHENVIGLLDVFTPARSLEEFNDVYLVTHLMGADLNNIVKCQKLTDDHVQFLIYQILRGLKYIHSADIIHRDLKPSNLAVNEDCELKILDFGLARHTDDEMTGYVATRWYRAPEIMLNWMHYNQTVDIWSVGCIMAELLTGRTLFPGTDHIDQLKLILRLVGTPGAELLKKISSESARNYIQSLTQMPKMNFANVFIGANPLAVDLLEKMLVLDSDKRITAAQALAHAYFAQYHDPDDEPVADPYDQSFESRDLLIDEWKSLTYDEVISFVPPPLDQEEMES

| IC50 | SMILES |
| --- | --- |
| > 1000 nM | CC(C)NC(=O)c1csc(-c2c(-c3ccc(F)cc3)noc2CNCc2ccc3c(c2)OCO3)n1 [Example 1472] |
| > 1000 nM | COc1cccc(CCNCc2onc(-c3ccc(F)cc3)c2-c2nc(C(=O)NC(C)C)cs2)c1 [Example 1473] |
| > 1000 nM | COc1ccc(CCNCc2onc(-c3ccc(F)cc3)c2-c2nc(C(=O)NC(C)C)cs2)cc1 [Example 1475] |
| > 1000 nM | CCOc1ccccc1CNCc1onc(-c2ccc(F)cc2)c1-c1nc(C(=O)NC(C)C)cs1 [Example 1477] |
| > 1000 nM | CC(C)NC(=O)c1csc(-c2c(-c3ccc(F)cc3)noc2CNCCc2ccccc2Cl)n1 [Example 1478] |
| > 1000 nM | CC(C)NC(=O)c1csc(-c2c(-c3ccc(F)cc3)noc2CNCCc2ccc(Cl)cc2)n1 [Example 1479] |
| > 1000 nM | CC(C)NC(=O)c1csc(-c2c(-c3ccc(F)cc3)noc2CNCCc2cccc(Cl)c2)n1 [Example 1480] |
| > 1000 nM | CC(C)NC(=O)c1csc(-c2c(-c3ccc(F)cc3)noc2CNCc2ccc(F)c(Cl)c2)n1 [Example 1483] |
| > 1000 nM | CC(C)NC(=O)c1csc(-c2c(-c3ccc(F)cc3)noc2CNCc2ccc(C(C)(C)C)cc2)n1 [Example 1486] |
| > 1000 nM | COc1cc(CNCc2onc(-c3ccc(F)cc3)c2-c2nc(C(=O)NC(C)C)cs2)cc(OC)c1 [Example 1489] |
| > 1000 nM | COc1ccc(CNCc2onc(-c3ccc(F)cc3)c2-c2nc(C(=O)NC(C)C)cs2)cc1OC [Example 1490] |
| > 1000 nM | CC(C)NC(=O)c1csc(-c2c(-c3ccc(F)cc3)noc2CNCC(=O)c2ccccc2)n1 [Example 1491] |
| > 1000 nM | CC(C)NC(=O)c1csc(-c2c(-c3ccc(F)cc3)noc2CNCc2ccc(C(F)(F)F)cc2)n1 [Example 1493] |
| > 1000 nM | CC(C)NC(=O)c1csc(-c2c(-c3ccc(F)cc3)noc2CNCc2cccc(C(F)(F)F)c2)n1 [Example 1494] |
| > 1000 nM | CC(C)NC(=O)c1csc(-c2c(-c3ccc(F)cc3)noc2CNCc2ccc(Cl)c(Cl)c2)n1 [Example 1495] |
| > 1000 nM | CC(C)NC(=O)c1csc(-c2c(-c3ccc(F)cc3)noc2CNCc2ccc(Cl)cc2Cl)n1 [Example 1496] |
| > 1000 nM | CC(C)NC(=O)c1csc(-c2c(-c3ccc(F)cc3)noc2CNCc2ccc(N(C)C)cc2)n1 [Example 1499] |
| > 1000 nM | COc1ccc(CNCc2onc(-c3ccc(F)cc3)c2-c2nc(C(=O)NC(C)C)cs2)cc1O [Example 1500] |

Second part, the compound before the results:

| SMILES | IC50 |
| --- | --- |
| CC(C)NC(=O)c1csc(-c2c(-c3ccc(F)cc3)noc2CN[C@H](CO)Cc2ccccc2)n1 [Example 1474] | > 1000 nM |
| COc1ccccc1CCNCc1onc(-c2ccc(F)cc2)c1-c1nc(C(=O)NC(C)C)cs1 [Example 1476] | > 1000 nM |
| CC(C)NC(=O)c1csc(-c2c(-c3ccc(F)cc3)noc2CNC2CC(C)(C)NC(C)(C)C2)n1 [Example 1481] | > 1000 nM |
| CCN(CC)CCCC(C)NCc1onc(-c2ccc(F)cc2)c1-c1nc(C(=O)NC(C)C)cs1 (stereo not drawn) [Example 1482] | > 1000 nM |
| CC(C)NC(=O)c1csc(-c2c(-c3ccc(F)cc3)noc2CNCCNC(=O)OC(C)(C)C)n1 [Example 1484] | > 1000 nM |
| CC(C)NC(=O)c1csc(-c2c(-c3ccc(F)cc3)noc2CNCCc2c[nH]c3ccccc23)n1 [Example 1485] | > 1000 nM |
| CC(C)NC(=O)c1csc(-c2c(-c3ccc(F)cc3)noc2CNCCCN(C)c2ccccc2)n1 [Example 1487] | > 1000 nM |
| CC(C)NC(=O)c1csc(-c2c(-c3ccc(F)cc3)noc2CNCC2(O)CCCCC2)n1 [Example 1488] | > 1000 nM |
| CC(C)NC(=O)c1csc(-c2c(-c3ccc(F)cc3)noc2CNCCCNC(=O)OC(C)(C)C)n1 [Example 1492] | > 1000 nM |
| CC(C)NC(=O)c1csc(-c2c(-c3ccc(F)cc3)noc2CNC2CCN(Cc3ccccc3)C2)n1 (stereo not drawn) [Example 1497] | > 1000 nM |
| COc1ccc(OC)c(CCNCc2onc(-c3ccc(F)cc3)c2-c2nc(C(=O)NC(C)C)cs2)c1 [Example 1498] | > 1000 nM |
| CC(C)NC(=O)c1csc(-c2c(-c3ccc(F)cc3)noc2CNC2CCN(Cc3ccccc3)CC2)n1 [Example 1501] | > 1000 nM |
